The source of these data is US7981898B2, “Methods of enhancing mucosal hydration and mucosal clearance by treatment with sodium channel blockers and osmolytes” (Parion Sciences, Inc., priority 2006, dated 2011).

The assay deals with Primary canine bronchial epithelia (CBE). Briefly: Gravimetric measurement of surface liquid volume on primary bronchial epithelial cultures at air-liquid interface (Assay #4). In kind it is cell-based. The protocol:
4. Durability of Novel ENaC Blockers with or without Osmolytes on Airway Surface Liquid on an in vitro Cell Culture Model.
Using a gravimetric (weighing) procedure, the luminal surface liquid (mass/volume) on primary bronchial epithelial cultures grown at an air/liquid interface on permeable membrane supports (Corning) are measured, and changes in luminal surface liquid volume are recorded for up to 8 h. An applied starting volume of buffer (Krebs-Henseleit Bicarbonate Buffer Solution) with and without equimolar concentrations (0.1-100 μM) of selected novel or commercially available sodium channel blockers with or without osmolytes are added and at which point the experiment is started. The permeable supports are then reweighted at select time points and the mass/volume recorded. The data is then analyzed determining the changes in surface liquid mass/volume form beginning to the end of the 8 hour time frame.
To measure the effects of novel sodium channel blockers with or without osmotically active agents on surface liquid volume on airway surface liquid an in vitro cell culture model was used as described above, Assay #4. The effects of an ionic osmolyte, 1.5% NaCl (hypertonic saline), with or without 10 μM of compound 1 before and after adding 1.5% NaCl and compared it to isotonic buffer (vehicle) (FIG. 1) on surface liquid volume was measured over 8 hours. Using the same method (Assay #4) the effects of a non-ionic osmolyte mannitol at 4.2 and 8.4 mg/mL were compared to compound 1 and isotonic buffer (vehicle) (FIG. 2), and also by combining mannitol (4.2 and 8.4 mg/mL) with compound 1 at 1 and 10 μM (FIG. 3) on surface liquid volume was measured. The effects of compound 2 with an ionic osmolyte, 1.5% NaCl (hypertonic saline), was compared to compound 1 and hypertonic saline (1.5% NaCl), compound 1 in isotonic buffer, compound 2 in isotonic buffer, 1.5% NaCl, and isotonic buffer (vehicle) (FIG. 4) on changes in surface liquid over 8 hours. […]

`N=C(NCCCCc1ccc(OCC(O)CO)cc1)NC(=O)c1nc(Cl)c(N)nc1N` (stereo not drawn) [Compound 1]: where the note is “Compound 1 (10 μM) with pre or post administration of 1.5% NaCl solution, maintained for 8 hours, n=12”, the volume expansion is recorded as 132+13%. Besides, the “inhibition of volume depletion (surface liquid volume)” value (Compound 1 alone at 10 μM, for over 8 hours) turned out to be 74.7 ± 8.7%. For the setting “hypertonic saline (1.5% NaCl) combined with Compound 1 (10 μM)”, the “duration of the increase in ASL volume” value is “over 8 h”.
